Assay results: US7090874B2, “Ligand for peroxisome proliferator-activated receptor” (Kaneka Corporation, priority 2001, dated 2006)

Tests used:
[1] = biological target: T1, mouse PPARγ ligand binding domain (Mus musculus, UniProt P37238); test: PPARγ ligand activity: GAL4-mPPARγ LBD chimera luciferase reporter assay in CV-1 cells; type: cell-based; conditions: for PPARγ ligand activities (dependence on concentration): 2-10 μg/ml; for PPARγ ligand activity: relative to untreated control (DMSO)=1.00, mean ± SD, n=4
T1 construct: expressed in transfected cells; host or cells: CV-1 cells (African green monkey kidney)
T1 sequence (P37238 174-475 isoform P37238-2): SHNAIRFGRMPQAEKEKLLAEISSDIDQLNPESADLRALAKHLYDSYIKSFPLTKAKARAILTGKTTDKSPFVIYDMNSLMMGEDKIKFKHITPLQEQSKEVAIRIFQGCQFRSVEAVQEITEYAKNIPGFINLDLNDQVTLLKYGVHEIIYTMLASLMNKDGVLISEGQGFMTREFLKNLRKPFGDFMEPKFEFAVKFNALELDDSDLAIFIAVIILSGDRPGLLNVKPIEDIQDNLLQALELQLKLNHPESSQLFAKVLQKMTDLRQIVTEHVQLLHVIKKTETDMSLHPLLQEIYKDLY
Protocol: CV-1 cells (cultured cells derived from male African green monkey kidney) were inoculated into a 96-well culture plate at 6×10^3 cells/well, and incubated at 37° C. for 24 hours under 5% CO2 conditions. As a medium, DMEM (Dulbecco's Modified Eagle Medium, product of GIBCO) containing 10% FBS (fetal bovine serum), 10 ml/L penicillin-streptomycin (5000 IU/ml and 5000 μg/ml, respectively, product of GIBCO), 37 mg/L ascorbic acid (product of Wako Pure Chemical Industries, Ltd.) was used. Cells were washed with OPTI-MEM (product of GIBCO), a serum-free medium, and transfected with pM-mPPARγ and 4×USAg-luc using LIPOFECTAMINE PLUS™ (product of GIBCO), a reagent for transfection of genes using a cationic lipid. […] The 4×UASg-luc is a reporter plasmid incorporated luciferase gene with 4-time-repeated responsive element (UASg) of GAL4 ligated thereto at the upstream end thereof. At approximately 24 hours after the transfection, the medium was replaced by a medium containing each sample (n=4) and cells were incubated for an additional 2 hours. Each sample used was dissolved in dimethyl sulfoxide (DMSO) and DMSO was used as an untreated control sample. […] Cells were washed with Ca, Mg-containing phosphate buffered saline (PBS+) and added with LUCLITE™ (product of Packard), a reagent for determination of luminescence using luciferase. Then, the luminescent intensity by expressed luciferase was determined in a TOPCOUNT™ Microplate Scintillation/Luminescence Counter (product of Packard).
The luminescent intensity was determined in the control group in the same way as in the test groups, but using pM (a plasmid lacking PPARγ ligand binding domain gene) instead of pM-mPPARγ. The ratio (test group/control group) of the average luminescent intensity between the test and control groups (n=4) was determined for each sample, and the relative activity of test sample. against the untreated control sample was determined as the PPARγ ligand activity of the sample.

[2] = tested on: C57BL/6J mice; test: Effect in model mice of diet-induced obesity (adipose tissue weights); type: in vivo, mouse
Protocol: C57BL/6J mice (females, 8 weeks old) were freely accessible to a high fat/high sugar diet (Oriental Yeast Co., Ltd., Table 6) for 8 weeks to obtain dietary obese animals. By using a normal diet (Oriental Yeast Co. Ltd., Table 3) as a base feed, two types of feeds, i.e., a diet without any additives and with 0.5% curcumin, were prepared. Next, said mice were divided into 2 groups (7 animals per group), and each group was freely accessible to a diet without any additives (control group) or with 0.5% curcumin (curcumin group) for 4 weeks. After an overnight fasting, mice were subjected to abdominal section under ether anesthesia to collect blood from the abdominal aorta, and then sacrificed. Then, adipose tissues were collected from the tissues around uterus, kidney and mesentery, and their weights were determined. The sum of the weights of periuterine, perirenal and mesenteric adipose tissues was determined as the total amount of intra-abdominal adipose tissue.

[3] = tested on: streptozotocin-induced diabetic rats; conditions: diet containing 0.5% curcumin; cited from earlier work
[4] = tested on: rats; conditions: rats which received curcumin; cited from earlier work
[5] = tested on: KK-Ay mice; test: Effect in KK-Ay model mice of type-II diabetes mellitus (body weight, blood glucose); type: in vivo, mouse; conditions: for Blood Glucose Level / Mouse Body weight: diet with 0.04% pioglitazone or 0.5% curcumin, mean ± SD
Protocol: KK-Ay mice, a model of genetically obese and type-II diabetic animals, were used to evaluate the effect of curcumin. Pioglitazone, a drug for treating diabetes mellitus, was used as a positive control.
KK-Ay mice (females, 6 weeks old) were divided into 3 groups (5 animals per group). By using a normal diet (product of Oriental Yeast Co. Ltd., Table 3) as a base feed, three types of feeds, i.e., a diet with out any additives, with pioglitazone and with curcumin, were prepared. Mice were placed in an environment in which they were freely accessible to a diet without any additives (control group), with pioglitazone (pioglitazone-added group) or with curcumin (curcumin-added group) for 4 weeks. Pioglitazone used was obtained by grinding Actos tablet 30 (30 mg pioglitazone per tablet, Takeda Chemical Industries Ltd.) in an agate mortar. The ground Actos tablet was then added to the normal diet at a dose of 0.04% pioglitazone. Curcumin was added to the normal diet at a dose of 0.5% curcumin.
During feeding, a small amount of blood was collected from the caudal vein of mice every week to determine blood glucose level using a simple bloodglucose level analyzer GLUTESTACE (Sanwa Kagaku Kenkyusho Co., Ltd.).

[6] = diet-induced obese C57BL/6J mice, 0.5% curcumin diet for 4 weeks, mean ± SD

| Compound | PPARγ ligand activities (dependence on concentration) [1] | PPARγ ligand activity ([1]; added concentration 2 μg/ml) | PPARγ ligand activity ([1]; added concentration 5 μg/ml) | PPARγ ligand activity ([1]; added concentration 10 μg/ml) | Blood Glucose Level ([5]; After 1 week) [mg/dL] | Mouse Body weight ([5]; After 1 week) [g] | Blood Glucose Level ([5]; After 2 weeks) [mg/dL] | Mouse Body weight ([5]; After 2 weeks) [g] | Blood Glucose Level ([5]; After 3 weeks) [mg/dL] | Mouse Body weight ([5]; After 3 weeks) [g] | Blood Glucose Level ([5]; After 4 weeks) [mg/dL] | Mouse Body weight ([5]; After 4 weeks) [g] | Blood Glucose Level ([5]; Start of feeding) [mg/dL] | Mouse Body weight ([5]; Start of feeding) [g] | also measured |
| --- | --- | --- | --- | --- | --- | --- | --- | --- | --- | --- | --- | --- | --- | --- | --- |
| COc1cc(/C=C/C(=O)/C=C(O)/C=C/c2ccc(O)c(OC)c2)ccc1O [Compound 1, Curcumin] | concentration-dependent | 2.36 ± 0.94 | 3.67 ± 1.06 | 4.16 ± 1.10 | 191 ± 18 | 34.7 ± 1.1 | 222 ± 46 | 39.8 ± 0.7 | 348 ± 125 | 42.8 ± 0.9 | 344 ± 105 | 44.7 ± 1.0 | 139 ± 7 | 25.5 ± 0.7 | Body weight compared with control group [2]: no significant difference; Weights of periuterine, perirenal, mesenteric and intra-abdominal adipose tissues compared with control group [2]: significantly reduced; Adipose tissue per body weight: Mesenteric adipose tissue (c) [2, 6]: 0.39 ± 0.11 % by weight; Adipose tissue per body weight: Perirenal adipose tissue (b) [2, 6]: 0.46 ± 0.15 % by weight; Adipose tissue per body weight: Periuterine adipose tissue (a) [2, 6]: 0.8 ± 0.21 % by weight; Body weight after feeding [2, 6]: 22.9 ± 0.9 g; Adipose tissue per body weight: Intra-abdominal adipose tissue (a + b + c) ([2]; sum of periuterine, perirenal and mesenteric, diet-induced obese C57BL/6J mice, 0.5% curcumin diet for 4 weeks, mean ± SD): 1.65 ± 0.42 % by weight; Cholesterol, triglyceride and phospholipid levels in blood [3]: reduced; Renal lesions associated with diabetes mellitus [3]: amelioration; Activity of acyl-CoA oxidase (β-oxidation promotive enzyme) [4]: enhanced; Triglyceride accumulation in the liver [4]: inhibition; Elevation of blood glucose level compared with control group ([5]; 4 weeks feeding): suppressed significantly; Mouse body weight change compared with control group ([5]; 4 weeks feeding): without any significant difference |
| CCc1ccc(CCOc2ccc(CC3SC(=O)NC3=O)cc2)nc1 (stereo not drawn) [Pioglitazone, reference compound] |  |  |  |  | 163 ± 23 | 36.7 ± 1.0 | 182 ± 9 | 39.9 ± 1.2 | 166 ± 18 | 42.3 ± 1.2 | 153 ± 21 | 43.8 ± 1.4 | 151 ± 9 | 26.9 ± 1.0 |  |
| Bisdemethoxycurcumin [Compound 3] | concentration-dependent | 1.88 ± 0.33 | 3.55 ± 0.38 | 4.08 ± 0.46 |  |  |  |  |  |  |  |  |  |  |  |
| Demethoxycurcumin [Compound 2] | concentration-dependent | 2.17 ± 0.39 | 4.25 ± 0.77 | 4.41 ± 0.35 |  |  |  |  |  |  |  |  |  |  |  |
